Numbers after ± are expanded uncertainties.
Assay: mn = molality of the nth substance listed, in mol/kg
Conditions: 100 kPa, Liquid; for speed of sound: Frequency=3 MHz, Single path-length method; for mass density: Vibrating tube method

OC[C@H]1O[C@@](CO)(O[C@H]2O[C@H](CO)[C@@H](O)[C@H](O)[C@H]2O)[C@@H](O)[C@@H]1O [D-sucrose] + O
Conditions | mass density, 288.15 K [kg/m3] | mass density, 298.15 K [kg/m3] | mass density, 308.15 K [kg/m3] | mass density, 318.15 K [kg/m3] | speed of sound, 288.15 K [m/s] | speed of sound, 298.15 K [m/s] | speed of sound, 308.15 K [m/s] | speed of sound, 318.15 K [m/s]
m1 = 0.1002 | 1012.01 ± 8 | 1009.81 ± 8 | 1006.68 ± 8 | 1002.77 ± 8 | 1476.3 ± 16 | 1506 ± 16 | 1528.2 ± 16 | 1544 ± 16
m1 = 0.2007 | 1024.37 ± 8 | 1022.04 ± 8 | 1018.8 ± 8 | 1014.82 ± 8 | 1486.2 ± 16 | 1515 ± 16 | 1536.5 ± 16 | 1552.6 ± 16
m1 = 0.3011 | 1036.19 ± 8 | 1033.73 ± 8 | 1030.39 ± 8 | 1026.34 ± 8 | 1496 ± 16 | 1524 ± 16 | 1544.7 ± 16 | 1560.1 ± 16
m1 = 0.4034 | 1047.72 ± 8.1 | 1045.13 ± 8 | 1041.69 ± 8 | 1037.58 ± 8 | 1506 ± 16 | 1533.2 ± 16 | 1553.1 ± 16 | 1567.7 ± 16
m1 = 0.4996 | 1058.12 ± 8.1 | 1055.43 ± 8.1 | 1051.89 ± 8.1 | 1047.73 ± 8.1 | 1515.3 ± 16 | 1541.7 ± 16 | 1561 ± 16 | 1576 ± 16
m1 = 0.6018 | 1068.73 ± 8.1 | 1065.92 ± 8.1 | 1062.29 ± 8.1 | 1058.07 ± 8.1 | 1525.2 ± 16 | 1550.6 ± 16 | 1569.3 ± 16 | 1584.2 ± 16
m1 = 0.7022 | 1078.71 ± 8.1 | 1075.81 ± 8.1 | 1072.09 ± 8.1 | 1067.82 ± 8.1 | 1534.9 ± 16 | 1559.3 ± 16 | 1577.2 ± 16 | 1592 ± 16
m1 = 0.7978 | 1087.87 ± 8.1 | 1084.86 ± 8.1 | 1081.07 ± 8.1 | 1076.72 ± 8.1 | 1543.9 ± 16 | 1567.4 ± 16 | 1584.8 ± 16 | 1599.6 ± 16
m1 = 0.8955 | 1096.86 ± 8.2 | 1093.77 ± 8.2 | 1089.9 ± 8.2 | 1085.49 ± 8.2 | 1552.9 ± 16 | 1575.6 ± 16 | 1592.3 ± 16 | 1606.7 ± 16
m1 = 0.9969 | 1105.83 ± 8.2 | 1102.65 ± 8.2 | 1098.71 ± 8.2 | 1094.23 ± 8.2 | 1562.2 ± 16 | 1583.8 ± 16 | 1600.1 ± 16 | 1614.4 ± 16

O=C([O-])CC(O)(CC(=O)[O-])C(=O)[O-].[NH4+].[NH4+].[NH4+] [ammonium 2-hydroxypropane-1,2,3-tricarboxylate] + O
Conditions | mass density, 288.15 K [kg/m3] | mass density, 298.15 K [kg/m3] | mass density, 308.15 K [kg/m3] | mass density, 318.15 K [kg/m3] | speed of sound, 288.15 K [m/s] | speed of sound, 298.15 K [m/s] | speed of sound, 308.15 K [m/s] | speed of sound, 318.15 K [m/s]
m1 = 0.2 | 1021.37 ± 8 | 1019 ± 8 | 1015.71 ± 8 | 1011.75 ± 8 | 1503.1 ± 16 | 1532 ± 16 | 1553.5 ± 16 | 1569 ± 16
m1 = 0.4 | 1043.45 ± 8 | 1040.15 ± 8 | 1037.34 ± 8 | 1033.31 ± 8 | 1540.4 ± 16 | 1567.3 ± 16 | 1587.8 ± 16 | 1602.3 ± 16
m1 = 0.6 | 1063.76 ± 8.1 | 1060.41 ± 8.1 | 1057.21 ± 8.1 | 1052.93 ± 8.1 | 1578.7 ± 16 | 1603.6 ± 16 | 1621.9 ± 16 | 1635.4 ± 16

O=C([O-])CC(O)(CC(=O)[O-])C(=O)[O-].[Li+].[Li+].[Li+] [trilithium citrate] + O
Conditions | mass density, 288.15 K [kg/m3] | mass density, 298.15 K [kg/m3] | mass density, 308.15 K [kg/m3] | mass density, 318.15 K [kg/m3] | speed of sound, 288.15 K [m/s] | speed of sound, 298.15 K [m/s] | speed of sound, 308.15 K [m/s] | speed of sound, 318.15 K [m/s]
m1 = 0.2 | 1027.21 ± 8 | 1025.32 ± 8 | 1021.67 ± 8 | 1017.79 ± 8 | 1509.2 ± 16 | 1535.8 ± 16 | 1556 ± 16 | 1570.2 ± 16
m1 = 0.4 | 1052.75 ± 8.1 | 1050.41 ± 8.1 | 1046.92 ± 8.1 | 1042.96 ± 8.1 | 1548 ± 16 | 1572.6 ± 16 | 1590.3 ± 16 | 1602.4 ± 16
m1 = 0.6 | 1078.28 ± 8.1 | 1075.38 ± 8.1 | 1071.84 ± 8.1 | 1068 ± 8.1 | 1589.2 ± 16 | 1610.5 ± 16 | 1625.9 ± 16 | 1635.7 ± 16

Source: the NIST ThermoML archive (doi:10.1016/j.jct.2018.05.004)
